Measured values published in patent US20210228523A1, “MODULATORS OF SESTRIN-GATOR2 INTERACTION AND USES THEREOF” (Navitor Pharmaceuticals, Inc., priority 2017, published 2021).

Experiments:
[1] = test system: mTORC1; test: Western blot of pS6 in multiple regions of the rat brain; assay type: in vivo; conditions: Example C; NV-5138 160 mg/kg oral; 1 hr post-dose; ad libitum access to food
Experimental: Study Design: Ten (10) male rats weighing between 175 and 200 g were randomized into 2 study groups (n=5/group), following a 5-day acclimation period. Group 1 received a single administration of Veh by oral gavage and group 2 received a single administration of NV-5138 (160 mg/kg prepared in Veh) by oral gavage. One hour following administration, rats were sacrificed by conscious decapitation, plasma was collected for analysis of NV-5138 exposure in addition to the isolation of the PFC, hippocampus, striatum, neocortex and cerebellum by microdissection. Total protein extracts were prepared from the harvested tissues and submitted to WB analysis followed by quantitative analysis of selected mTORC1 substrates.
Formulation of NV-5138 (160 mg/ml): NV-5138 (Navitor, Lot #09) was prepared by dissolving in Veh at a concentration of 160 mg/mL. […]
Western Blot Analysis: Synaptosomes preparations (15 μg of total protein) were loaded and separated on NuPAGE 4-12% Bis-Tris gels and transferred to PVDF membrane (Immobilon-FL PVDF membrane, Millipore) using CAPS Buffer (10 mM 3-(Cyclohexylamino)-1-propanesulfonic acid, 12.5% Ethanol pH=10). […] Signals were quantified using the Odyssey Infrared Imaging System (LI-COR Bioscience). The resulting densitometric readings were used to generate a ratio of phopho-protein to α-tubulin. […]

[2] = test system: mTORC1; test: Western blot of pS6 in rat brain and selected peripheral organs; assay type: in vivo; conditions: Example D; NV-5138 160 mg/kg oral; 1 hr post-dose
Experimental: Study Design: Thirty (30) male rats weighing between 175 and 200 g were randomized into 3 study groups (n=10), following a 5-day acclimation period. One hour following dosing rats were sacrificed by conscious decapitation, plasma, brain and selected peripheral tissues were harvested for compound level and WB analysis. Tissues were prepared for WB to quantitate the mTORC1 substrate pS6 as a measure of mTORC1 activity.
The dosing volume based on the weight of the animal (10 mL/kg) was administered by oral gavage. Test articles were prepared the day of dosing.
Tissues Preparations: One hour following dosing rats were sacrificed by conscious decapitation, plasma, brain and peripheral tissues were harvested and immediately frozen in liquid nitrogen. Tissues were thawed and homogenized for 1 min twice using MP homogenizer in Lysis Buffer (Cell lysis buffer: 1% Triton X-100, 50 mM HEPES pH 7.4, 100 mM NaCl, 2 mM EDTA, 10 mM Beta-glycerophosphate, 10 mM Sodium pyrophosphate, and 1 protease inhibitor tab per 50 mL fresh) at 4° C. Lysates were then sonicated on ice for 20 s at 50% amplitude. The protein concentration was determined by Bradford assay and all samples were mixed with loading buffer (50 mM Tris-HCl pH 6.8, 2% SDS, 5% glycerol, 5% β-mercaptoethanol and 0.01% Bromophenol blue) and stored at −20° C. until WB analysis.
Western Blot (WB) Analysis. Equal amounts of each sample (15 μg of total protein) were loaded and separated on NuPAGE 4-12% Bis-Tris gels and transferred to PVDF membrane (Immobilon-FL PVDF membrane, Millipore) using CAPS Buffer (10 mM 3-(Cyclohexylamino)-1-propanesulfonic acid, 12.5% Ethanol pH=10). After transfer, membranes were incubated for 1 hr at room temperature in Odyssey blocking buffer (Licor). After blocking, membranes were incubated at 4° C. overnight with primary antibodies. Primary antibodies used were rabbit anti-[…] (cell signaling; #5364) at 1:1000, mouse anti-GAPDH (Sigma; #G8795) at 1:1000 and mouse anti-a-tubulin (Sigma; #T5168) at 1:10000 in Odyssey blocking buffer. The next day, membranes were washed three times in 1×TBS-Tween (25 mM Tris, pH 7.4, 3.0 mM KCl, 140 mM NaCl and 0.05% Tween-20) and incubated with dye-coupled secondary antibodies (goat anti-mouse IRdye680, and goat anti-rabbit IRdye800 from LI-COR) at 1:20000 in Odyssey blocking buffer for 30 min then wash three times in IX TBS-Tween. Signals were quantified using the Odyssey Infrared Imaging System (LI-COR Bioscience). The resulting densitometric readings were used to generate a ratio of phopho-protein to a-tubulin or GAPDH. The resulting ratio was further normalized to vehicle treated control group.

## CC(C)(C[C@H](N)C(=O)O)C(F)F [NV-5138]
[1]
  activation of mTORC1 (pS6) in PFC, striatum, hippocampus, neocortex and cerebellum: significant activation of mTORC1 in most, but not all of the major regions of the brain
[2]
  level of pS6 in rat epididymal fat: significantly increased
  level of pS6 in rat heart: significantly increased
  level of pS6 in rat kidney: significantly increased
  level of pS6 in rat tibialis anterior: significantly increased
  pS6 levels in liver: not the liver
  pS6 levels in rat brain: significant activation of mTORC1
  pS6 levels in testes: significant activation
